{
  "source": "paper PMC8910920",
  "about": "(International Journal of Molecular Sciences, 2022)",
  "key": {"[1]": {"biological_target": "T1, hCGRPR (Homo sapiens, UniProt O60894+Q16602)", "T1 construct": "host or cells: CHO", "T1 sequence (Q16602 23-461)": "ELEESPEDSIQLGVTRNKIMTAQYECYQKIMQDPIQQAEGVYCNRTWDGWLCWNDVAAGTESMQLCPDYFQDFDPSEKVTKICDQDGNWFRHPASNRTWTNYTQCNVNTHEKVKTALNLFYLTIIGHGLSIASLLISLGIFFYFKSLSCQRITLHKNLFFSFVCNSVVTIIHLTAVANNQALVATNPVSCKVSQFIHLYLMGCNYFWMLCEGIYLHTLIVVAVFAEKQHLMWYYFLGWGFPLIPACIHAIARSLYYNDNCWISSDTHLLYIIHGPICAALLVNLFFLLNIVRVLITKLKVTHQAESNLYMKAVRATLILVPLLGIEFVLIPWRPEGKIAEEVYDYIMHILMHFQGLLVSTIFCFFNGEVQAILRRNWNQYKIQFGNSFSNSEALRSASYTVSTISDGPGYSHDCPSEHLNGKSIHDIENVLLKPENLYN", "T1 sequence (O60894 27-148 partner)": "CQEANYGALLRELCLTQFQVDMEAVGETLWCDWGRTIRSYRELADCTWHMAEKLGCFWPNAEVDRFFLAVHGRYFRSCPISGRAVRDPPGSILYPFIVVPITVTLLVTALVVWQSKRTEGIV", "assay": "Radioligand binding assay, CHO cells, hCGRPR", "details": "radioligand [125]hGCRPα", "protocol": "To define whether β–lactam derivative RGM8-51 could bind to CGRPR, CB2 and M3 receptors, in vitro binding assays were performed, using CHO cell lines transfected with these receptors. The degree of binding was determined by using specific radioligands for each receptor (Table 2, footnote).\nThese studies were subcontracted to Eurofins-CEREP or Eurofins-PANLABS. Briefly, agonists and antagonist assays were performed in cell cultures overexpressing the corresponding channel (CHO: TRPV1 and TRPA1; HEK293: TRPV3 and ASIC3). In vitro pharmacology, cellular channel functional assays: the compound was prepared in assay buffer to the final concentration, 10 μM. […] The agonist assay was conducted on fluorimeter instruments where the test compound, vehicle controls, and reference agonist were added to the assay plate after a fluorescence baseline was established. […] For the antagonist assay, the compound was pre-incubated for five minutes at room temperature, and then challenged with the EC80 concentration of the reference agonist after establishment of a fluorescence baseline. […] Binding assay results are expressed as a percent of control specific binding. […] Aqueous solubility (μM) was determined by comparing the peak area of the principal peak in a calibration standard (200 μM) containing organic solvent (methanol/water, 60/40, v/v) with the peak area of the corresponding peak in a buffer sample. […]"}, "[2]": {"assay": "Aqueous solubility in simulated gastric fluid", "format": "physicochemical", "details": "simulated gastric conditions (pH < 5.5)", "protocol": "These studies were subcontracted to Eurofins-CEREP or Eurofins-PANLABS. Briefly, agonists and antagonist assays were performed in cell cultures overexpressing the corresponding channel (CHO: TRPV1 and TRPA1; HEK293: TRPV3 and ASIC3). In vitro pharmacology, cellular channel functional assays: the compound was prepared in assay buffer to the final concentration, 10 μM. The compound wells, reference agonist and background vehicle controls were prepared in DMSO at 0.3%. The reference agonist for each Ion Channel assayed was prepared in a similar manner to serve as the assay control. […] The agonist assay was conducted on fluorimeter instruments where the test compound, vehicle controls, and reference agonist were added to the assay plate after a fluorescence baseline was established. […] For the antagonist assay, the compound was pre-incubated for five minutes at room temperature, and then challenged with the EC80 concentration of the reference agonist after establishment of a fluorescence baseline. […] Binding assay results are expressed as a percent of control specific binding. […] Aqueous solubility (μM) was determined by comparing the peak area of the principal peak in a calibration standard (200 μM) containing organic solvent (methanol/water, 60/40, v/v) with the peak area of the corresponding peak in a buffer sample. […] The amount of compound in organic phase was calculated by subtraction. […]"}},
  "data": [
    {"smiles": "C[C@@H]1C(=O)N(C[C@H](Cc2ccccc2)N(Cc2ccccc2)Cc2ccccc2)[C@]1(Cc1ccccc1)C(=O)OC(C)(C)C", "note": "[RGM8-51, 4(S)-Benzyl-3S-methyl-4-(tert-butoxy)carbonyl-1-[(2′S-dibenzylamino-3′-phenyl)prop-1′-yl]-2-oxoazetidine]", "values": [
      {"measurement": "Binding hCGRPR (%), inhibition of specific binding", "setting": "[1]; 10 μM", "result": "did not show significant affinity"},
      {"measurement": "inhibition at 10 µM", "setting": "[1]; read-out: Binding hCGRPR (%), inhibition of specific binding", "result": "-1 ± 4.3", "unit": "%"},
      {"measurement": "solubility", "setting": "[2]", "result": 198, "unit": "µM"}
    ]}
  ]
}
